Measurements: ChEMBL document CHEMBL1687944, “Purification and inhibition studies with anions and sulfonamides of an α-carbonic anhydrase from the Antarctic seal Leptonychotes weddellii” (Bioorg Med Chem, 2011)

Target: Carbonic anhydrase 1 (Homo sapiens, UniProt P00915)
Sequence (P00915 whole entry): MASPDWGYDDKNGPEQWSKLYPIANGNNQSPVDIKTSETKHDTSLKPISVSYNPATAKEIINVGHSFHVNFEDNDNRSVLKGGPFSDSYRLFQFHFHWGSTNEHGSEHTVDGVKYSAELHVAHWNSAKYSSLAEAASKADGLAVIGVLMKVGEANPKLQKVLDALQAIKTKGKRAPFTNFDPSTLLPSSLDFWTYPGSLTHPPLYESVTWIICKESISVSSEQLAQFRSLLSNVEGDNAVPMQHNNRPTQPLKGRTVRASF

Row | Compound | Ki
1 | O=[N+]([O-])[O-].[Na+] [SODIUM NITRATE] | 7 mM
2 | [O-][Cl+3]([O-])([O-])O [SODIUM PERCHLORATE] | > 200 mM
3 | O=S([O-])O.[Na+] [SODIUM BISULFITE] | 18 mM
